Experimental findings from paper PMC6008883, “Identification of Peptide Antagonists to Thioredoxin Glutathione Reductase of Schistosoma japonicum” (BioMed Research International, 2018) are described below.

Experiment [1] concerns TrxR of SjTGR (thioredoxin glutathione reductase of Schistosoma japonicum). The experiment can be described thus: Inhibition of TrxR activity of SjTGR. To be noted: phage clone, 10^11 pfu; SjTGR 48 nM; vs activity of SjTGR without phage; repeated three times; P<0.01 vs phage library for JIPDys1, JIPDys2, JIPDys3. Type of experiment: biochemical. The procedure:
To assess the inhibitory action of phages, the activities of TrxR, GR, and glutaredoxin (Grx) of SjTGR were assayed as described in [21]. […], phage library was used as negative phage control, and the effect of phages on the activity of SjTGR was expressed as percentage inhibition: Inhibition percentage = (activity of SjTGR – activity of SjTGR with isolated phage)/activity of SjTGR. The experiment was repeated three times.
(§1) The activities of TrxR, GR, and Grx of SjTGR were assayed with different concentrations (0.5 μM, 1 μM, and 2 μM) of the synthesized peptide JIPDys1 to determine the 50% inhibitory concentration (IC50), and the same amount of PBS was added to the system as control. The experiment was repeated three times. The IC50 values were calculated by curve fitting using the SPSS 13.0 software.
(§2) All data are given as the mean ± standard deviation (SD). The activities of TrxR, GR, and Grx of SjTGR (absorbance/S (ΔA/S)) with JIPDys1, JIPDys2, JIPDys3, and JIPDys4 were statistically compared with the negative phage control (phage library) using two-tailed Student's t-tests. The activities of TrxR, GR, and Grx of SjTGR (absorbance/S (ΔA/S)) with the synthesized peptide were statistically compared with PBS control using two-tailed Student's t-tests, too. SPSS 13.0 was used for the statistical analyses. Differences between mean values were considered to be significant at the level of 5%.

Experiment [2] concerns Grx of SjTGR (thioredoxin glutathione reductase of Schistosoma japonicum). In words: Inhibition of Grx activity of SjTGR. The experiment is classed as biochemical. To be noted: phage clone, 10^11 pfu; SjTGR 48 nM; vs activity of SjTGR without phage; repeated three times; P<0.01 vs phage library for JIPDys1, JIPDys3. Here is the method:
(§3) To assess the inhibitory action of phages, the activities of TrxR, GR, and glutaredoxin (Grx) of SjTGR were assayed as described in [21]. 10 μl ([…]) of phage solution was added to the reaction system, phage library was used as negative phage control, and the effect of phages on the activity of SjTGR was expressed as percentage inhibition: Inhibition percentage = (activity of SjTGR – activity of SjTGR with isolated phage)/activity of SjTGR. The experiment was repeated three times.
as §1, §2

Experiment [3] relates to SjTGR. The experiment can be described thus: Inhibition of SjTGR enzyme activity (TrxR, GR and Grx overall). Type of experiment: biochemical, Schistosoma japonicum. To be noted: JIPDys1 from phage screening. Here is the method: as §3, §1
Experiment [4] relates to GR of SjTGR (thioredoxin glutathione reductase of Schistosoma japonicum). In words: Inhibition of GR activity of SjTGR. Type of experiment: biochemical. To be noted: phage clone, 10^11 pfu; SjTGR 48 nM; vs activity of SjTGR without phage; repeated three times; P<0.01 vs phage library for JIPDys1, JIPDys2. Here is the method:
To assess the inhibitory action of phages, the activities of TrxR, GR, and glutaredoxin (Grx) of SjTGR were assayed as described in [21]. […] system, phage library was used as negative phage control, and the effect of phages on the activity of SjTGR was expressed as percentage inhibition: Inhibition percentage = (activity of SjTGR – activity of SjTGR with isolated phage)/activity of SjTGR. The experiment was repeated three times.
as §1, §2

Experiment [5] has as its system SjTGR. In words: Phage binding to recombinant SjTGR by ELISA. On the set-up: species or system Schistosoma japonicum. To be noted: mean of triplicates; for Binding to SjTGR (ELISA OD450nm): phage 1×10^12 pfu/ml, HRP-conjugated anti-M13 antibody, TMB, positive if OD450nm 2.1 times above negative control, binding decreased with decreasing titers. Here is the method:
Phage clones were amplified according to the manual. A 96-well plate was coated with 100 μl of SjTGR solution (10 μg/ml, 0.1 M NaHCO3, pH 8.6) overnight at 4°C. After blocking with PBS containing 5% milk powder at rt for 1 h, 100 μl of phage solution with titers of 1 x 10^12, 2.5 x 10^11, 6 x 10^10, 1.5 x 10^10, and 3.75 x 10^9 pfu/ml was used per well, respectively. The phage library was set as the negative phage control. Following an incubation at 37°C for 2 h and six washes with TBST (0.5% Tween-20), 200 μl of diluted HRP-conjugated anti-M13 monoclonal antibody solution was added for 1 h at rt. Following six washes with TBST, 100 μl of substrate TMB solution was added for 10 minutes at rt. 50 μl of 2 M sulfuric acid solution (H2SO4) was added to terminate the reaction and absorbance at 450nm was measured. OD450nm values 2.1 times above the negative control value were considered positive.

With “WPHNWWPHFKVK [JIPDys1, M13 phage clone from Ph.D.-12 library displaying peptide …]”, in experiment [1], the “Percentage of inhibition of TrxR” value was found to be 59.04%. For the same sequence, the “Percentage of inhibition of Grx” value in experiment [2] is 53.56%. In addition, the “Inhibition of SjTGR activity” value in the experiment on SjTGR [3] is reported as “more than 50%”. For the same sequence, the “Percentage of inhibition of GR” value in experiment [4] worked out at 80.80%. Further, the “Binding capacity compared with the other phages” value in the experiment on SjTGR [5] (ELISA, phage titers 3.75 x 10^9 to 1.0 x 10^12 pfu/ml) is given as “strongest binding capacity among those phages”. Moreover, the “Binding to SjTGR (ELISA OD450nm)” value in the experiment with SjTGR [5] is listed as “bound to SjTGR”.

For the sequence “LHAETRSAMHRT [JIPDys2, M13 phage clone from Ph.D.-12 library displaying peptide …]”, in experiment [1], the “Percentage of inhibition of TrxR” value was determined as 45.24%. Also, the “Percentage of inhibition of Grx” value in experiment [2] was determined as 25.64%. Moreover, the “Percentage of inhibition of GR” value in experiment [4] came out at 69.43%. The “Binding to SjTGR (ELISA OD450nm)” value with SjTGR [5] is “bound to SjTGR”.

In the case of “KHMHWHPPALNT [JIPDys4, M13 phage clone from Ph.D.-12 library displaying peptide …]”, the “Percentage of inhibition of TrxR” value in experiment [1] is given as 0.73%. Besides, the “Percentage of inhibition of Grx” value in experiment [2] turned out to be 1.23%. For the same sequence, in experiment [4], the “Percentage of inhibition of GR” value is recorded as 1.50%. Further, the “Binding to SjTGR (ELISA OD450nm)” value with SjTGR [5] is given as “bound to SjTGR”.

For “YTMPSLTLYAMG [JIPDys3, M13 phage clone from Ph.D.-12 library displaying peptide …]”, the “Percentage of inhibition of TrxR” value in experiment [1] is reported as 54.72%. For the same sequence, in experiment [2], the “Percentage of inhibition of Grx” value stood at 43.02%. The “Percentage of inhibition of GR” value in experiment [4] was determined as 20.88%. The “Binding to SjTGR (ELISA OD450nm)” value with SjTGR [5] was “bound to SjTGR”.
